# Measured values reported in US7589121B2, “Use of furan alkyls for preparing a drug for treating obesity and cosmetically treating overweight” (priority 2004, dated 2009).
# What was measured:
# [1] = system: mice fattened on a high fat/high sucrose diet (HF/HS); assay: Weight gain / weight of mice on HF/HS diet; type: in vivo; details: curative group; TZD added to HF/HS food
# Description: We used adult mice (aged 6 weeks) of masculine gender fattened on a high fat/high sucrose diet (HF/HS). Feeding with the HF/HS diet began on mice aged 6 weeks and continued throughout the period of the study. The study was conducted along 2 axes: • prevention: the product was administered as soon as feeding began with the HF/HS diet; • management (curative): the product was administered 12 weeks after the start of the HF/HS diet. Total treatment time (preventive and curative): 23 weeks.
# Each experimental group comprised 10 mice.
# ACO (target PPARα) = assay: Analysis of mRNAs in the liver (Q-RT-PCR): ACO; type: in vivo, mice; details: TZD
# Description: (§1) In the liver, the mRNA expressions of 8 genes were determined in 5 mice of each group using real-time Q-RT-PCR analysis.
# [2] = system: PGC-1 (mitochondria biogenesis); assay: Analysis of mRNAs in the muscles and BAT: PGC-1; type: in vivo, mice; details: TZD
# Description: In the brown adipose tissue (BAT) and in the muscles, the mRNA expression of 3 genes was determined in 5 mice of each group by real-time Q-RTR-PCR analysis.
# [3] = system: ME, FAS, ACC (fatty acid synthesis); assay: Analysis of mRNAs in the liver (Q-RT-PCR): ME, FAS, ACC; type: in vivo, mice; details: TZD
# Description: as §1
# [4] = system: GSH-S-transferase (target PXR); assay: Analysis of mRNAs in the liver (Q-RT-PCR): GSH-S-transferase; type: in vivo, mice; details: TZD
# Description: as §1
# CYP7A1 = assay: Analysis of mRNAs in the liver (Q-RT-PCR): CYP7A1; type: in vivo, mice; details: TZD
# Description: as §1
# PEPCK (target PPARγ) = assay: Analysis of mRNAs in the liver (Q-RT-PCR): PEPCK; type: in vivo, mice; details: TZD
# Description: as §1
compound,measurement,setting,value
"CN(CCOc1ccc(CC2SC(=O)NC2=O)cc1)c1ccccn1 (stereo not shown) [TZD, Rosiglitazone]",weight loss of overweight mice,[1],did not cause the overweight mice to lose weight
same,"ACO (target PPARα) mRNA, liver",ACO (target PPARα),⇑
same,"PGC-1 (mitochondria biogenesis) mRNA, MUSCLE/BAT",[2],⇑ (muscle)
same,"ME, FAS, ACC (fatty acid synthesis) mRNA, liver",[3],⇑⇑
same,"GSH-S-transferase (target PXR) mRNA, liver",[4],⇑
same,"CYP7A1 (conversion oxysterol into biliary acids) mRNA, liver",CYP7A1,⇑⇑
same,"PEPCK (target PPARγ) mRNA, liver",PEPCK (target PPARγ),⇑
